Test results as given in patent publication US6962912B2, “Substituted pyrazolo[4,3-e]diazepines, pharmaceutical compositions containing them, use as medicinal products and processes for preparing them” (Warner-Lambert LLC, priority 2000, dated 2005).

Experiments:
PDE4 = test: Inhibition of PDE4 (cytosolic enzyme preparation from U937 line), compared with rolipram; format: biochemical, human; settings: PDE4 enzyme preparation obtained from the U937 line
production of TNFα = test: in vivo TNFα model in Wistar rats (LPS-induced); settings: oral administration 30 min before i.p. LPS; plasma 90 min after LPS; male Wistar rats
Excerpt: TNFα is a cytokine which plays a central role in the mechanisms of inflammation. Its production can be induced by an injection of lipopolysaccharide (LPS). It has been shown that the increase in intracellular cAMP, produced in particular by PDE4 inhibitors, decreases the production of TNFα in in vitro and in vivo models. It is thus a matter here of quantifying in vivo the anti-inflammatory potential of the compounds of the invention, administered orally (p.o.) by measuring the inhibition of the production of TNFα in the plasma of rats, these rats having received an intraperitoneal (i.p.) injection of lipopolysaccharide (LPS). The treatment with the compounds of the invention or the vehicle are [sic] administered orally to male Wistar rats, 30 min before the injection of LPS. The rats are sacrificed 90 min after the stimulation with LPS, the blood is collected onto EDTA and the TNFα concentration is measured in each plasma sample. […] References • Chen, Y. L., Le Vraux, V., Giroud, J. P. and Chauvelot-Moachon L. (1994). Anti-tumor necrosis factor properties of non-peptide drugs in acute-phase responses. […] Int. J. Immunopharmacol., 16 (10), 805-816. Model of Eosinophilia in Rats

Row | IC50 (PDE4) | melting point | Structure (SMILES) | inhibition of the production of TNFα in the plasma of rats (production of TNFα)
1 | 130 nM | 148 °C | CCn1nc(C)c2c1C(=O)NCC(c1ccncc1)=N2 [Example 32, 1-Ethyl-3-methyl-5-pyrid-4-yl-6,7-dihydro-1H-pyrazolo[4,3-e][1,4]diazepin-8-one] | excellent activity
2 | 4.7 nM | 105.4 °C | CCCCc1nn(CC)c2c1N=C(c1ccccc1)CNC2=O [Example 34, 3-Butyl-1-ethyl-5-phenyl-6,7-dihydro-1H-pyrazolo[4,3-e][1,4]diazepin-8-one] | excellent activity
3 | 1.7 nM | 280 °C | CCn1nc(C)c2c1C(=NC#N)NCC(c1ccccc1)=N2 [Example 55, 1-Ethyl-3-methyl-5-phenyl-6,7-dihydro-1H-pyrazolo[4,3-e][1,4]diazepin-8-ylidenecyanamide] | excellent activity
4 | 0.73 nM | 126 to 127 °C | CCn1nc(C2CCCCC2)c2c1C(=O)NCC(c1ccncc1)=N2 [Example 73, 3-Cyclohexyl-1-ethyl-5-pyrid-4-yl-6,7-dihydro-1H-pyrazolo-[4,3-e][1,4]diazepin-8-one] | excellent activity
